Experimental data published in PubChem BioAssay (NCI).
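Dose response: 5 concentrations. Exposure: 48 h. Format: 96-well plates. Endpoint: linear interpolation; highest concentration if not reached. Definition used: TGI = concentration required for complete inhibition of growth.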

What was measured:
Experiment in all cases: NCI-60 cell line screen, 48 h
HL-60(TB) leukemia = system: HL-60(TB) leukemia
MDA-MB-231 breast = system: MDA-MB-231 breast
OVCAR-4 ovarian = system: OVCAR-4 ovarian
MDA-MB-435 = system: MDA-MB-435
SN12C renal = system: SN12C renal
NCI-H522 lung = system: NCI-H522 lung
ACHN renal = system: ACHN renal
HT29 colon = system: HT29 colon
UACC-257 melanoma = system: UACC-257 melanoma
NCI-H460 lung = system: NCI-H460 lung
SNB-19 CNS = system: SNB-19 CNS

Structure (SMILES) | TGI (HL-60(TB) leukemia) [µM] | TGI (MDA-MB-231 breast) [µM] | TGI (OVCAR-4 ovarian) [µM] | TGI (MDA-MB-435) [µM] | TGI (SN12C renal) [µM] | TGI (NCI-H522 lung) [µM] | TGI (ACHN renal) [µM] | TGI (HT29 colon) [µM] | TGI (UACC-257 melanoma) [µM] | TGI (NCI-H460 lung) [µM] | TGI (SNB-19 CNS) [µM]
Cc1ccccc1OC(C)C(=O)NN1C(=O)CSC1c1ccc(Cl)cc1 (centres undefined) | 47.5 | 86 | > 100 | > 100 | 35.3 | > 29.4 | > 68.9 | 38.6 | > 100 | > 56.8 | > 100
COc1ccc2nc(-c3ccccc3)cc(OCC(=O)O)c2c1 | > 100 | > 100 | – | > 100 | > 100 | > 100 | > 100 | > 100 | > 100 | > 100 | > 100
CS(=O)(=O)c1nc(-c2cc3c(c(S(C)(=O)=O)n2)CCCC3)cc2c1CCCCC2 | > 100 | > 100 | > 100 | > 100 | > 100 | > 100 | > 100 | > 100 | > 100 | – | > 100
CC(C)CCC[C@@H](C)[C@H]1CC[C@H]2[C@@H]3CC[C@H]4C[C@@H](CCC=C(c5cc(Cl)c(O)c(C(=O)O)c5)c5cc(Cl)c(O)c(C(=O)O)c5)CC[C@]4(C)[C@H]3CC[C@]12C | > 100 | > 100 | > 100 | > 100 | > 100 | > 100 | > 100 | > 100 | > 100 | > 100 | > 100
COC(=O)C1Cc2cc3c(cc2C1=O)CCCC3 (centres undefined) | > 100 | > 100 | > 100 | > 100 | > 100 | > 100 | > 100 | > 100 | > 100 | > 100 | > 100
CC(C)(C)OC(=O)NC1CC2(C=C(Br)C(=O)C(Br)=C2)OC1=O (centres undefined) | 7.65 | 32.6 | 24.1 | 22.1 | 18.5 | 3.92 | 10.8 | 18.6 | 13 | 38.5 | 38.6
c1ccc(C(NCC2CCO2)(c2ccccc2)c2ccccc2)cc1 (centres undefined) | 48.8 | 70.1 | 30.2 | 46 | 51.3 | 28.1 | 29 | – | 39.5 | 33.9 | 27.6
COC(CN(C(C)=O)C1CCC2(SCCS2)c2[nH]c3ccccc3c21)OC (centres undefined) | > 100 | > 100 | > 100 | > 100 | > 100 | > 100 | > 100 | > 100 | 3.36 | > 100 | > 100
O=C(O)CCC(=O)c1ccc2c(c1)C(C(=O)O)CC2 (centres undefined) | > 100 | > 100 | > 100 | > 100 | > 100 | > 100 | > 100 | > 100 | > 100 | > 100 | > 100
NC(N)=NC(N)=Nc1ccc(S(=O)(=O)O)cc1 | > 100 | > 100 | > 100 | > 100 | > 100 | > 100 | > 100 | > 100 | > 100 | > 100 | > 100
O=C(O)CCS/C(=C\C(SCCC(=O)O)c1ccc(Cl)cc1)c1ccc(Cl)cc1 (centres undefined) | > 100 | > 100 | > 100 | > 100 | > 100 | > 100 | > 100 | > 100 | > 100 | > 100 | > 100
CC(C)(C)OC(=O)N(CCCCNC(=O)OCc1ccccc1)CCCNC(=O)OCc1ccccc1 | 53.9 | > 100 | > 100 | > 100 | > 100 | 19.4 | 22.6 | > 100 | > 100 | > 100 | > 100
[O-][N+](=Nc1ccccc1CO)c1ccccc1CO | > 100 | > 100 | > 100 | > 100 | > 100 | > 100 | – | > 100 | > 100 | > 100 | > 100
COc1c(/C=C/C(C)(C)O)cc(C2CC(=O)c3c(O)cc(O)cc3O2)cc1CC=C(C)C (centres undefined) | 30.8 | 15.1 | 24.6 | 15.3 | 14.3 | 18.6 | 14.3 | 16.7 | 15.9 | 16.5 | 18.6
COc1ccc(-n2[nH]nc(C(N)=O)c2=O)cc1 | > 100 | > 100 | > 100 | > 100 | > 100 | > 100 | > 100 | > 100 | > 100 | > 100 | > 100
COc1ccc(-n2c(N)c(C#N)[nH]c2=O)cc1 | > 10 | > 10 | > 10 | > 10 | > 10 | > 10 | > 10 | > 10 | > 10 | > 10 | > 10
CN(C)CCNC(=O)c1ccc(NCCCN(C)CCCNc2ccc(C(=O)NCCN(C)C)c3[nH]c4ccccc4c(=O)c23)c2c(=O)c3ccccc3[nH]c12 | 0.659 | 0.309 | 0.247 | 0.194 | 0.397 | 0.143 | 1.71 | 0.236 | 1.26 | 0.12 | 0.419
CSc1ccc(-c2cc(-c3nc4ccccc4[nH]3)no2)cc1 | 55.3 | > 100 | 19.3 | 44.7 | > 100 | 69.5 | > 100 | 62.1 | 85.9 | 45.7 | > 100
C=C1C(=O)O[C@H]2C[C@@]3(COC(C)=O)C=COC=C(COC(=O)C(C)C)C3CC12 (some centres undefined) | 63.2 | > 100 | – | > 100 | > 100 | > 100 | > 100 | > 100 | > 100 | > 100 | > 100
CO/N=C(/C)c1cccc(Nc2nc3ccccc3c3[nH]c4ccccc4c23)c1 | 53.3 | 25.5 | – | 20.6 | 25 | 9.61 | 12.8 | 11.2 | 26.5 | 11.3 | 26.7
